In patent US8293891B2, “4 (pyrrolopyridinyl)pyrimidin-2-ylamine derivatives” (Merck Patent Gesellschaft mit Beschrankter Haftung, priority 2007, dated 2012) one finds IC50 data, which are given here for four compounds.

SMILES strings stand for the structures.

In general, IC50 refers to the concentration at which inhibition is half-maximal. High values mean weaker potency, low ones greater potency.

Holding throughout (assay type): cell-based
One assay has as its system Colo205 (intestine). Nature of the assay: Inhibition of the proliferation/vitality of tumour cells (Alamar Blue), Colo205. As to conditions: Homo sapiens, COLO 205, 96 h, 4 days cultivation. Here is the method: (§1) The cells are sown in a suitable cell density in microtitre plates (96-well format) and the test substances are added in the form of a concentration series. After four further days of cultivation in serum-containing medium, the tumour cell proliferation/tumour cell vitality can be determined by means of an Alamar Blue test system.
(§2) The cells are cultivated in medium. At intervals of several days, the cells are detached from the culture dishes with the aid of trypsin solution and sown in suitable dilution in fresh medium. The cells are cultivated at 37° Celsius and 10% CO2. […]
(§3) In each case, 20 μl of Alamar Blue reagent are added per well, and the microtitre plates are incubated, for example, for a further seven hours in a CO2 incubator (at 37° C. and 10% CO2). The plates are measured in a reader with a fluorescence filter at a wavelength of 540 nm. […]
(§4) The absorbance value of the medium control (no cells and test substances used) is subtracted from all other absorbance values. The controls (cells without test substance) are set equal to 100 per cent, and all other absorbance values are set in relation thereto (for example in % of control):
(§5) IC50 values (50% inhibition) are determined with the aid of statistics programs, such as, for example, RS1.
In general terms: Alamar Blue is a resazurin reagent that responds to reducing activity.

Another assay relates to A2780 (ovary). Nature of the assay: Inhibition of the proliferation/vitality of tumour cells (Alamar Blue), A2780. As to conditions: Homo sapiens, 96 h, 4 days cultivation. Here is the method:
as §1
The cells are cultivated in medium. At intervals of several days, the cells are detached from the culture dishes with the aid of trypsin solution and sown in suitable dilution in fresh medium. The cells are cultivated at 37° Celsius and 10% CO2.
A defined number of cells (for example 2000 cells) per culture/well in a volume of 180 μl of culture medium are sown in microtitre plates (96 well cell-culture plates) using a multichannel pipette. The cells are subsequently cultivated in a CO2 incubator (37° C. and 10% CO2).
The test substances are dissolved, for example, in DMSO and subsequently employed in corresponding concentration (if desired in a dilution series) in the cell culture medium. The dilution steps can be adapted depending on the efficiency of the active ingredients and the desired spread of the concentrations. Cell culture medium is added to the test substances in corresponding concentrations. The addition of the test substances to the cells can take place on the same day as the sowing of the cells. To this end, in each case 20 μl of substance solution from the predilution plate are added to the cultures/wells. The cells are cultivated for a further 4 days at 37° Celsius and 10% CO2.
In each case, 20 μl of Alamar Blue reagent are added per well, and the microtitre plates are incubated, for example, for a further seven hours in a CO2 incubator (at 37° C. and 10% CO2). The plates are measured in a reader with a fluorescence filter at a wavelength of 540 nm. The plates can be shaken gently immediately before the measurement.
as §4, §5

A further assay deals with PC3 (prostate). Description: Inhibition of the proliferation/vitality of tumour cells (Alamar Blue), PC3. As to conditions: Prostate cell, 96 h, 4 days cultivation. How it is done: as §1, §2, §3, §4, §5
Another assay deals with MCF7 (breast). Description: Inhibition of the proliferation/vitality of tumour cells (Alamar Blue), MCF7. As to conditions: Homo sapiens, 96 h, 4 days cultivation. Here is the method: as §1, §2, §3, §4, §5

`c1ccc(Nc2nccc(-c3c[nH]c4ccncc34)n2)cc1` [Compound A1, phenyl[4-(1H-pyrrolo[3,2-c]pyridin-3-yl)pyrimidin-2-yl]-amine]: the IC50 in the assay with Colo205 (intestine), with A2780 (ovary), with PC3 (prostate) and in the assay on MCF7 (breast) was 0.01 to 1 µM throughout. In the assay on A2780 (ovary), `Cc1ccccc1Nc1nccc(-c2c[nH]c3ccncc23)n1` [Compound A6, [4-(1H-pyrrolo-[3,2-c]pyridin-3-yl)pyrimidin-2-yl]-o-tolyl-amine] displayed a 50% inhibitory concentration (IC50) of 1 to 10 µM. `Fc1cccc(Nc2nccc(-c3c[nH]c4ccncc34)n2)c1` [Compound A7] came in with a 50% inhibitory concentration (IC50) in the assay with A2780 (ovary) of 0.01 to 1 µM. Same read-out and setting: to `COc1ccc(Nc2nccc(-c3c[nH]c4ccncc34)n2)cc1` [Compound A8] belongs 1 to 10 µM.
